The text below walks through data of patent US11208412B2 (DAEGU-GYEONGBUK MEDICAL INNOVATION FOUNDATION, priority 2017, dated 2021).

Each structure is given as a SMILES string.

Holding throughout (test): Kinase selectivity, DiscoverX scanMAX Kinase assay panel (% control)
What all share (format): binding

In assay [1] the target is T1, kinases of the scanMAX Kinase assay panel (Homo sapiens, UniProt P19525).
T1 construct: purchased DiscoverX Co. (contract measurement) scanMAX Kinase assay panel
T1 sequence (P19525 whole entry): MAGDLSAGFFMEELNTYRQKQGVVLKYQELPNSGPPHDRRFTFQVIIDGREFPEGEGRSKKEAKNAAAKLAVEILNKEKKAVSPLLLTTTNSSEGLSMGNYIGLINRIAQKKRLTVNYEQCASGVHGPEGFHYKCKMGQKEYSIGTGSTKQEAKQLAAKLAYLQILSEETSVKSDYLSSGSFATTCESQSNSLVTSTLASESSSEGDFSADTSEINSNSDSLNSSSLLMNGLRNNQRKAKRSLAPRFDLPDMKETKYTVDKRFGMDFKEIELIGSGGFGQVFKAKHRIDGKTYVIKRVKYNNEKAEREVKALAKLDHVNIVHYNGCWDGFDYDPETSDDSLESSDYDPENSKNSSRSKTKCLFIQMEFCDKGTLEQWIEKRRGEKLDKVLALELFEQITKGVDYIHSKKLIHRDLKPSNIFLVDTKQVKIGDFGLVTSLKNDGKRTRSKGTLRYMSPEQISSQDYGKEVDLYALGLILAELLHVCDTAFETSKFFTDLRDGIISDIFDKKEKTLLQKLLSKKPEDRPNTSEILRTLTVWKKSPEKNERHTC
Particulars: PRKR; 1 uM. A digest of the protocol: (§1)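 Percent of control computed as (compound − positive control)/(negative control − positive control) × 100, DMSO defining 100% and positive control 0%. Each panel kinase exposed to 1 uM compound; values under 35% taken to mean the compound acts on that kinase.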

Assay [2] deals with T2, kinases of the scanMAX Kinase assay panel (Homo sapiens, UniProt P29317).
T2 construct: purchased DiscoverX Co. (contract measurement) scanMAX Kinase assay panel
T2 sequence (P29317 24-976): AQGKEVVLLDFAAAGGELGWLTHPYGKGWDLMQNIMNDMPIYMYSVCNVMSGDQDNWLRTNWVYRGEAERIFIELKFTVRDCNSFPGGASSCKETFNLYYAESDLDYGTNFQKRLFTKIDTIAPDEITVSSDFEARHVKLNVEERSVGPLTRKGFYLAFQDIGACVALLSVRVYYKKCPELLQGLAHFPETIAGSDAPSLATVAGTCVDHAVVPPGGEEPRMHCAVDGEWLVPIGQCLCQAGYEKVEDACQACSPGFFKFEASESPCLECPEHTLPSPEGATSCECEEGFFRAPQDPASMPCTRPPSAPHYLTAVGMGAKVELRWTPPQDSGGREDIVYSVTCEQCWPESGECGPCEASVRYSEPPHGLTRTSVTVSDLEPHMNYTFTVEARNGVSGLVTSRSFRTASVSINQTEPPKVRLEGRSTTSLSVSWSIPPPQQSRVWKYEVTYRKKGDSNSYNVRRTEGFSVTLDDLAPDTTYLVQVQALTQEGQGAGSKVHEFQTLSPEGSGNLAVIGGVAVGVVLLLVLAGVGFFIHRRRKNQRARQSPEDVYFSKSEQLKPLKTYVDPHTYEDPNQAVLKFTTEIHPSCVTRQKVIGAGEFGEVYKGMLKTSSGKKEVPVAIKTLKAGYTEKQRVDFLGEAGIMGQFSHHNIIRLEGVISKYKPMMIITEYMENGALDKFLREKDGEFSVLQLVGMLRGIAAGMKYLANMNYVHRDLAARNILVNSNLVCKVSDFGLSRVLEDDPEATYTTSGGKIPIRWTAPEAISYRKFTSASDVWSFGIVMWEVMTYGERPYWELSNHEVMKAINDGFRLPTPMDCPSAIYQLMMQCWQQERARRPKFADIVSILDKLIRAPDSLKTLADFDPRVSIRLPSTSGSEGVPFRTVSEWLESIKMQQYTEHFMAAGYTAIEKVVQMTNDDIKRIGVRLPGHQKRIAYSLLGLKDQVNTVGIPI
Particulars: EPHA2; 1 uM. Summed up: as §1

The target of assay [3] is T3, kinases of the scanMAX Kinase assay panel (Homo sapiens, UniProt Q12852).
T3 construct: purchased DiscoverX Co. (contract measurement) scanMAX Kinase assay panel
T3 sequence (Q12852 1-859): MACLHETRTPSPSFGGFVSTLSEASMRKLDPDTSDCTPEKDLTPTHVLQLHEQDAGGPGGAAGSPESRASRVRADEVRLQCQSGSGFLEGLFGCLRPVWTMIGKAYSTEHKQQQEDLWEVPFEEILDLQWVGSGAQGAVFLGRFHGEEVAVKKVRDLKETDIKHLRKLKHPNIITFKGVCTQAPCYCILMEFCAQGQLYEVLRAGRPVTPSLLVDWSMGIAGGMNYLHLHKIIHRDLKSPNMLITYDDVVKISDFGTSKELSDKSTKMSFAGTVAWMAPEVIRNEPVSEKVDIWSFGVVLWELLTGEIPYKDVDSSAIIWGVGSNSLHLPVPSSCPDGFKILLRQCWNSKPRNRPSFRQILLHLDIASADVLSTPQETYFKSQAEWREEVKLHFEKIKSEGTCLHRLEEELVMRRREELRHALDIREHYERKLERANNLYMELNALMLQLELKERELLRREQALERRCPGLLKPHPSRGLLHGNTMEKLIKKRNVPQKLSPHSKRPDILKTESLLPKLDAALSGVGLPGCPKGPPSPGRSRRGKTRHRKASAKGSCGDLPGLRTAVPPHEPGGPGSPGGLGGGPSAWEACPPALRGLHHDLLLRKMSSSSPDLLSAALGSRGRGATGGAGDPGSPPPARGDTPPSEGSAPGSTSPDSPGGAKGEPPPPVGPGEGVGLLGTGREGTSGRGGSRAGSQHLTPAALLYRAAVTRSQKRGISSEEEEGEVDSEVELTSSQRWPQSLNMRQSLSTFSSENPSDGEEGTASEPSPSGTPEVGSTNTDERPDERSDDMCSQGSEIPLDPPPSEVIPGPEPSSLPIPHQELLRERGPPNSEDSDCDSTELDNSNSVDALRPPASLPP
Particulars: DLK; 1 uM. Summed up: as §1

Assay [4] addresses T4, kinases of the scanMAX Kinase assay panel (Homo sapiens, UniProt P28482).
T4 construct: purchased DiscoverX Co. (contract measurement) scanMAX Kinase assay panel
Conditions: ERK2; 1 uM. A digest of the protocol:
as §1

The target of assay [5] is T5, kinases of the scanMAX Kinase assay panel (Homo sapiens, UniProt Q9NWZ3).
T5 construct: purchased DiscoverX Co. (contract measurement) scanMAX Kinase assay panel
T5 sequence (Q9NWZ3 1-460): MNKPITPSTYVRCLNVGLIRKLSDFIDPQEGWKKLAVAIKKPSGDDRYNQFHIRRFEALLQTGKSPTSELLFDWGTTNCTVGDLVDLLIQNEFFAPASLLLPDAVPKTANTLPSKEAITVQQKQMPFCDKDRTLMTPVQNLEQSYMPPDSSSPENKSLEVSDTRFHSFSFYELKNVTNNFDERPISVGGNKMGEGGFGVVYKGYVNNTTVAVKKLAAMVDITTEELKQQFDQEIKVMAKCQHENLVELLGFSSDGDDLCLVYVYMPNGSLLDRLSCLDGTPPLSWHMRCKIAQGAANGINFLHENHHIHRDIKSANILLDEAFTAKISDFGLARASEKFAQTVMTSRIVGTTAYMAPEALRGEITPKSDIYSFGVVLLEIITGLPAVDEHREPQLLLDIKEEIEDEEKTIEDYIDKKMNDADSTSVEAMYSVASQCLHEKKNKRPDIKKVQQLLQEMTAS
Conditions: IRAK4; 1 uM. A digest of the protocol:
as §1

The target in assay [6] is T6, kinases of the scanMAX Kinase assay panel (Homo sapiens, UniProt Q8N568).
T6 construct: purchased DiscoverX Co. (contract measurement) scanMAX Kinase assay panel
T6 sequence (Q8N568 whole entry): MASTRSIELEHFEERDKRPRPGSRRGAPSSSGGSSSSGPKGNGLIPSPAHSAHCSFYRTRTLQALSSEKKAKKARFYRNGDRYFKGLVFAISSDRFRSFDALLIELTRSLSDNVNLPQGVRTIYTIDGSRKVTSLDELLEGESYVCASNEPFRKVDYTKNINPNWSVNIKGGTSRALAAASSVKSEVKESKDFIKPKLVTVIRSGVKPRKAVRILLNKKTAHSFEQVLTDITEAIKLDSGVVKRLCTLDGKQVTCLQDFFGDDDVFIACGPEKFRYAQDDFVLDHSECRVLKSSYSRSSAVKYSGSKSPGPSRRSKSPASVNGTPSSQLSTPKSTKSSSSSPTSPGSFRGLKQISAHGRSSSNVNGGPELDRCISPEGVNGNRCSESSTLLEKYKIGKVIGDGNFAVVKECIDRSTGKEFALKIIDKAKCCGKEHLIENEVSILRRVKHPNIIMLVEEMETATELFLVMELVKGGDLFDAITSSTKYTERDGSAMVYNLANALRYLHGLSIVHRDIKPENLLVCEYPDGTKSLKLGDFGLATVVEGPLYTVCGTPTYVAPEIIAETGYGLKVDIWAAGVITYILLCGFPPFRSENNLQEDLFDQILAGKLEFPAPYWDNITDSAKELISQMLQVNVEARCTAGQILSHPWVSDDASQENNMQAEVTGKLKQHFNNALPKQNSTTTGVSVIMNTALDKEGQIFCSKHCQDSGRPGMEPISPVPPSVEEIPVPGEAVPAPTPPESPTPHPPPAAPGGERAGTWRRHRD
Particulars: DCAMKL2; 1 uM. Summed up:
as §1

Assay [7] concerns the target T7, kinases of the scanMAX Kinase assay panel (Homo sapiens, UniProt O00750).
T7 construct: purchased DiscoverX Co. (contract measurement) scanMAX Kinase assay panel
Conditions: PIK3C2B; 1 uM. Summed up: as §1

In assay [8] the target is T8, kinases of the scanMAX Kinase assay panel (Homo sapiens, UniProt P06239).
T8 construct: purchased DiscoverX Co. (contract measurement) scanMAX Kinase assay panel
T8 sequence (P06239 whole entry): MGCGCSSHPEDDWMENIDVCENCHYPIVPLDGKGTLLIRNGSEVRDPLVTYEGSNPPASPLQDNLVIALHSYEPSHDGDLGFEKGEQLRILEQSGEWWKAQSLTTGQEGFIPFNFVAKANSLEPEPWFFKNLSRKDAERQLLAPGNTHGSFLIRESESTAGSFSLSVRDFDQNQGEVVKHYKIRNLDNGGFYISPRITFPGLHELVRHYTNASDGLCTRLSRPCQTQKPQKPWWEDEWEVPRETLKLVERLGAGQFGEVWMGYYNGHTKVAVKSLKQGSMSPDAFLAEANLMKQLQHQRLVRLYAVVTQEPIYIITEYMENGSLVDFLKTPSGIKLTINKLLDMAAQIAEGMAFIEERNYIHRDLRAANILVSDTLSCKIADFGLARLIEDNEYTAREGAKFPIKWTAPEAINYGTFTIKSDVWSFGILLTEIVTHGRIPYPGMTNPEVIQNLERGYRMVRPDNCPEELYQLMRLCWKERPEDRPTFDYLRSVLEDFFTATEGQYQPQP
Particulars: LCK; 1 uM. Summed up:
as §1

T7 sequence (O00750 whole entry): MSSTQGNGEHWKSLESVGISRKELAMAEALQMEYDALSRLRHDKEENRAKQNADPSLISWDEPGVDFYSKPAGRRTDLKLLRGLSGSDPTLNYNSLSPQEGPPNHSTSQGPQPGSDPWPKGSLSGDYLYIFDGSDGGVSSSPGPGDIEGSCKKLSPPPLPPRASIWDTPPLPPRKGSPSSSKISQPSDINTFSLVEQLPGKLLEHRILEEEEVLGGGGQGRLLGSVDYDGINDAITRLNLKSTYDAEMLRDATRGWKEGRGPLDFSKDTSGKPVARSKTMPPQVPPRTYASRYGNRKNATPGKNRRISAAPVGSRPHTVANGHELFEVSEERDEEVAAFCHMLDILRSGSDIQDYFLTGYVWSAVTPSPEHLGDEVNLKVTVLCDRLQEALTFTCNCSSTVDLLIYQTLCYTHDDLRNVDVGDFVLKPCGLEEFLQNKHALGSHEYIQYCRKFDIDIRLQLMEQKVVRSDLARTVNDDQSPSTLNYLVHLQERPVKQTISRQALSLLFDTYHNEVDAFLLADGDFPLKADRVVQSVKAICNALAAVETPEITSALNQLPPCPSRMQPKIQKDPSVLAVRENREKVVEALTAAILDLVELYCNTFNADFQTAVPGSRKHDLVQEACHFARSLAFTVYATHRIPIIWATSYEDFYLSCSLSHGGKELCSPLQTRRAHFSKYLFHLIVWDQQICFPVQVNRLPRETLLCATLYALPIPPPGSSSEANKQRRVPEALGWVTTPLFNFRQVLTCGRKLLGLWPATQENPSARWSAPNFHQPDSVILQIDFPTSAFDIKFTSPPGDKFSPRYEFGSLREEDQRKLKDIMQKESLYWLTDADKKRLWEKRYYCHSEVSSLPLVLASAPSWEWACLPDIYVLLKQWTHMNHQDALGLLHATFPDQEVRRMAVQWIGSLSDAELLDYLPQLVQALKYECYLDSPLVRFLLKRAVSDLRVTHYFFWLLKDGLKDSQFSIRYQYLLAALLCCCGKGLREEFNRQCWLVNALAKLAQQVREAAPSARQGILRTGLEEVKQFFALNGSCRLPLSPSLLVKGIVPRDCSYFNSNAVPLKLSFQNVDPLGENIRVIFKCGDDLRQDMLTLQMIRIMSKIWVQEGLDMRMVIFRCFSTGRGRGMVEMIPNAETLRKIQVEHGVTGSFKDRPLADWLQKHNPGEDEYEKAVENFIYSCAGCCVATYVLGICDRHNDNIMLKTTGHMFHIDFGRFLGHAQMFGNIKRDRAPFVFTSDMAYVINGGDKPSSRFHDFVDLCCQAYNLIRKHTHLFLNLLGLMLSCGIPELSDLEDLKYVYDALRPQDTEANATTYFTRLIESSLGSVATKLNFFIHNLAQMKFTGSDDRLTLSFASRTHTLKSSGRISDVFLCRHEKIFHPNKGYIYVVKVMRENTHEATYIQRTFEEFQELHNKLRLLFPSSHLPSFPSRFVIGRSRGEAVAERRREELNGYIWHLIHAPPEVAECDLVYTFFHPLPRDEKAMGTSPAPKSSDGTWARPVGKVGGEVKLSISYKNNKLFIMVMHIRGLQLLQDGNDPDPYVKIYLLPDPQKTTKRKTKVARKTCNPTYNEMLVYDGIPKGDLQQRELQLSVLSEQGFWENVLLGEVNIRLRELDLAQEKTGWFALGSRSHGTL
T4 sequence (P28482 whole entry): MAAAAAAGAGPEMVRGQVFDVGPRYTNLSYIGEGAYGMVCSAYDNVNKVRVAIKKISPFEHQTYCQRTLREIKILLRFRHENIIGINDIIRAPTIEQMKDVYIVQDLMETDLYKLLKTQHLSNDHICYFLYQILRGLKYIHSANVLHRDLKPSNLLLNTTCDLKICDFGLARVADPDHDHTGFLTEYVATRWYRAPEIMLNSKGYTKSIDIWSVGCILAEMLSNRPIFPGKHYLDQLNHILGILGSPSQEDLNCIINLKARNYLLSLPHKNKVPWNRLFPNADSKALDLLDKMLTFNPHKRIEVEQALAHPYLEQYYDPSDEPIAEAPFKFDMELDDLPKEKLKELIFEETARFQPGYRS

For `CNc1nc(Nc2ccc(C(=O)N3CCOCC3)cc2OC)nc2[nH]cc(C#N)c12` [Example 1, 2-((2-methoxy-4-(morpholine-4-carbonyl)phenyl)amino)-4-(methylamino)-7H-pyrrolo[2,3-d]pyrimidine-5-carbonitrile], the remaining binding at 1 µM in assay [1] was found to be 95%; in assay [2], 97%; in assay [3] it was 74%; in assay [4], 86%; in assay [5], 92%; in assay [6], 91%. In addition, the values for the remaining binding at 1 µM in assay [7] and in assay [8] were 89% and 100%, respectively.

On to `CC1(Nc2nc(Nc3cnn([C@H]4CCN(C5COC5)C[C@@H]4F)c3Cl)nc3[nH]cc(C#N)c23)CC1` [Example 52, 2-((5-chloro-1-((3S,4S)-3-fluoro-1-(oxetane-3-yl)piperidine-4-yl)-1H-pyrazole-4-yl)amino)((1-methylcyclopropyl)amino)-7H-pyrrolo[2,3-d]pyrimidine-5-carbonitrile], for which the remaining binding at 1 µM in assay [1] turned out to be 42%; in assay [2], 79%; in assay [3], 21%; in assay [4], 54%; in assay [5] it was 0.2%; in assay [6], 76%. Moreover, the results for the remaining binding at 1 µM in assay [7] and in assay [8] were 91% and 19%, respectively.

As for `CCNc1nc(Nc2ccc(C(=O)N3CCC(N4CCOCC4)CC3)cc2OC)nc2[nH]cc(C(F)(F)F)c12` [Example 104, (4-((4-(ethylamino)-5-(trifluoromethyl)-7H-pyrrolo[2,3-d]pyrimidine-2-yl)amino)-3-methoxyphenyl)(4-morpholinopiperidine-1-yl)methanone], the remaining binding at 1 µM was determined as 85% in assay [1]; 100% in assay [2]; 100% in assay [3]; 100% in assay [4]; 100% in assay [5]; 93% in assay [6]. Moreover, the figures for the remaining binding at 1 µM in assay [7] and in assay [8] were 75% and 100%, respectively.
